“Also recorded” adds a separate entry of the source.
Experiments:
[1] = In vitro cytotoxicity evaluation HepG2 (MTT); format: cell-based, human; conditions: human, CC50 HepG2 (µM) ± SD
Description: For all molecules, the selectivity index was calculated as following SI = CC50/EC50.
Triplicate assays were performed for each sample. Each plate-well was then microscopically examined for possible precipitate formation before the medium was aspirated from the wells. Next, 100 µL of MTT (3-(4,5-dimethyl-2-thiazolyl)-2,5-diphenyl -2H-tetrazolium bromide) solution (0.5 mg/mL in medium without FBS) was added to each well. […] After this time, the MTT solution was removed and DMSO (100 μL) was added to dissolve the resulting blue formazan crystals. Plates were shaken vigorously (700 rpm) for 10 min. The absorbance was measured at 570 nm with 630 nm as reference wavelength using a BIO-TEK ELx808 Absorbance Microplate Reader (LabX, Midland, ON, Canada). DMSO was used as blank and doxorubicin (purchased from Sigma Aldrich) as positive control. Cell viability was calculated as a percentage of control (cells incubated without compound). […] CC50 values to represent the mean value calculated from three independent experiments.

[2] = test system: F32-ART5 and F32-TEM parasites; assay: Recrudescence assay; format: cell-based, Plasmodium falciparum; conditions: 48 h exposure; 2.5 µM 3i or 18 µM ART; log-rank Mantel-Cox test
Description: Recrudescence assay was performed to evaluate the ability of the F32-ART5 parasites to survive drug exposure comparatively to the F32-TEM parasites. D-sorbitol synchronized ring-stages at 3% parasitemia (2% hematocrit) were exposed to drug for 48 h. After drug exposure, parasite cultures were washed with RPMI-1640 medium and replaced in normal drug-free culture conditions. The time to parasite recrudescence was determined as the time required to reach the 3% initial parasitemia. […] Each experiment was performed for F32-ART5 and F32-TEM and cultivated in parallel in the same conditions to generate paired results. This was carried out at least three times independently. A statistical analysis (log-rank Mantel–Cox test) was carried out on data thanks to a Kaplan–Meier survival analysis (using GraphPad Prism software) considering censored data.
Figure S48. 13C NMR spectrum of 2i in CDCl3, on a Bruker ARX 101 spectrometer
2. […]
3. Studying the effect of (3i) on the liver stage development of P. falciparum Cryopreserved primary human hepatocytes were seeded in 96 well plates with a pre-determined seeding dose that gave a single dense layer of attached hepatocytes. […]
The culture medium with or without drugs was refreshed every 48 hours and two independent plates were studied. […] Plates were subjected to quantification using an automated plate scanner. […]

P. falciparum apicoplast = assay: Immunofluorescence assay of apicoplast biogenesis on treated blood-stage parasites; format: cell-based, Plasmodium falciparum; conditions: 48 h, 0.2 µM
Description: To determine the impact of (3i) on apicoplast biogenesis, parasites were treated for 48 h with 0.2 µM of (3i) or 0.2 µM of (2i) (a control of (3i) for which the active CCl3 was replaced by a methyl CH3 group) and compared to untreated parasites by immunofluorescence assay. […] In order to determine if the apicoplast is the main target of (3i), we performed a growth assay over three life cycles to assess a potential delayed death effect, one of the major signature for compounds affecting apicoplast. […] The second interpretation could be that, unlike chloramphenicol or doxycycline, which cause a delayed death phenotype on Plasmodium, (3i) could act like fosmidomycin or actinonin and cause a rapid death phenotype.
Plasmodium falciparum blood stage parasites were maintained at 2% hematocrit in 1640 RPMI-HEPES, supplemented with 5% AlbuMAX II (GIBCO) and 0.25% gentamycin. Parasites were grown sealed Perspex chambers gassed with beta mix gas (1% O2, 5% CO2 and 94% N2) at 37 °C and maintained on 48-h cycles. Cultures were tightly synchronized at ring stage using sorbitol treatment (5% v/v) as previously described.
Prior to the treatment, parasites were synchronized using 5% sorbitol. After 48 h treatment ([…] or DMSO) parasites were fixed using 4% paraformaldehyde (PFA) and 0.0075% glutaraldehyde for 30 min at room temperature. […]

O=[N+]([O-])c1ccc(Oc2nc3ccccc3nc2C(Cl)(Cl)Cl)cc1 [3i, 2-(4-Nitrophenoxy)-3-trichloromethylquinoxaline]
CC50 at 72 h [1]: 32 ± 6.1 µM
Recrudescence of F32-ART5 compared with F32-TEM after drug exposure [2]: faster recrudescence
Effect on apicoplast biogenesis (immunofluorescence) (P. falciparum apicoplast): effect on the apicoplast biogenesis; also recorded: doted single non-elongated apicoplast at the mid-trophozoite life stage

Source: paper PMC8400257, “2-Phenoxy-3-Trichloromethylquinoxalines Are Antiplasmodial Derivatives with Activity against the Apicoplast of Plasmodium falciparum” (Pharmaceuticals, 2021)
